In patent US8371376B2, “Method for pre-treatment of subterranean sites adjacent to water injection wells” (E. I. du Pont de Nemours and Company, priority 2010, dated 2013):

Experiment: Titration of sand/amine/brine mixture with 1N HCl, amine concentration by GC
Assay type: physicochemical
Settings: initial pH 8.4, before HCl addition; 380 ppm expected if all dissolved
Protocol: Helium was used as the carrier gas.
38 milligrams (mg) of N N-Dimethyl-1-Dodecanamine (hereafter referred to as “the amine”) was added to 10.210 gr of Pentane. This solution was added to 10.1845 gr of specific sand layers (Oa and Ob) obtained from the Schrader Bluff formation of the Milne Point Unit of the Alaskan North slope. The oil content of the sand was first removed using a mixture of methanol and toluene (50/50, volume/volume) as solvent washes. The solvent mixture was subsequently evaporated off the core sand to produce clean, dry, flowable core sand. This sand was mixed with the amine and pentane solution to produce a slurry. This slurry was thoroughly mixed and the pentane was evaporated off leaving the amine on the sand (hereafter referred to as sand/amine mixture). 100 ml of brine #2 (Table 3) was added to the sand/amine mixture to create the sand/amine/brine mixture. […] The fact that the amine was not detected underlined its strong binding to the sand particles. […] The data underlines the remarkable efficiency of an acid at ionizing and removing the amine from the sand.

CCCCCCCCCCCCN(C)C [N-N-dimethyl-1-dodeanamine, N N-Dimethyl-1-Dodecanamine]
amine conc. in sand/amine/brine mixture: < 1 ppm
